Counter-ions that a name gives are not always drawn.
Target: T1, RON kinase (Homo sapiens, UniProt Q04912)
T1 construct: purchased Carna Bioscience
Assay: RON kinase enzyme inhibitory activity, FRET (TR-FRET) technique
Format: biochemical
Details: 60 min reaction
Procedure: The enzyme inhibitory activity (IC50) of the thienopyridine derivative was measured using FRET (fluorescence resonance energy transfer) technique. RON kinase (Carna Bioscience) was diluted with a kinase assay buffer (50 mM HEPES pH 7.5, 1 mM EGTA, 10 mM MgCl2, 2 mM DTT, and 0.01% Tween-20) to a concentration of 2× (0.4 nM) the final reaction concentration and the dilution was added to a 384-well plate at 5 μL/well. As sample compounds, the compounds synthesized in the examples of the present invention and the compounds of the comparative examples were used. The sample compounds were respectively dissolved in 100% DMSO to obtain 1 mM stock solutions, which were then subjected to eight 10-fold serial dilutions. The sample compounds were diluted with the kinase assay buffer to a concentration of 4× the final reaction concentration, and the dilutions were added to the 384-well plate at 2.5 μL/well. The plate was incubated at room temperature for 15 minutes. Next, 0.25 M ATP solution (Sigma Aldrich) was diluted with the kinase reaction buffer to a concentration of 4× (60 μM) the final reaction concentration, and a tyrosine peptide substrate (Perkin-Elmer) was diluted therein to a concentration of 4× (400 nM) the final reaction concentration. The dilution was added to the 384-well plate at 2.5 μL/well. Then, the 384-well plate was incubated at room temperature and the reaction was allowed to proceed for 60 minutes. After 60 minutes, EDTA (Sigma Aldrich) was diluted with TR-FRET detection buffer (Perkin-Elmer) to a concentration of 4× (40 mM) the final reaction concentration. A europium-labeled anti-phosphotyrosine antibody (Perkin-Elmer) was diluted in the above EDTA dilution to a concentration of 4× (8 nM) the final reaction concentration to prepare a stop solution of the RON kinase reaction. The stop solution was added to the 384-well plate at 10 μL/well to terminate the reaction, and the plate was incubated at room temperature for 60 minutes. Thereafter, the plate was read on Victor X5 plate reader (Perkin-Elmer). At this time, the excitation wavelength was 340 nm and the emission wavelengths were 620 nm and 665 nm. The IC50 values of the sample compounds were determined using GraphPad Prism™ 5 by expressing the emission energy at 665 nm as a function of the sample compound concentration.

T1 sequence (Q04912 25-1400): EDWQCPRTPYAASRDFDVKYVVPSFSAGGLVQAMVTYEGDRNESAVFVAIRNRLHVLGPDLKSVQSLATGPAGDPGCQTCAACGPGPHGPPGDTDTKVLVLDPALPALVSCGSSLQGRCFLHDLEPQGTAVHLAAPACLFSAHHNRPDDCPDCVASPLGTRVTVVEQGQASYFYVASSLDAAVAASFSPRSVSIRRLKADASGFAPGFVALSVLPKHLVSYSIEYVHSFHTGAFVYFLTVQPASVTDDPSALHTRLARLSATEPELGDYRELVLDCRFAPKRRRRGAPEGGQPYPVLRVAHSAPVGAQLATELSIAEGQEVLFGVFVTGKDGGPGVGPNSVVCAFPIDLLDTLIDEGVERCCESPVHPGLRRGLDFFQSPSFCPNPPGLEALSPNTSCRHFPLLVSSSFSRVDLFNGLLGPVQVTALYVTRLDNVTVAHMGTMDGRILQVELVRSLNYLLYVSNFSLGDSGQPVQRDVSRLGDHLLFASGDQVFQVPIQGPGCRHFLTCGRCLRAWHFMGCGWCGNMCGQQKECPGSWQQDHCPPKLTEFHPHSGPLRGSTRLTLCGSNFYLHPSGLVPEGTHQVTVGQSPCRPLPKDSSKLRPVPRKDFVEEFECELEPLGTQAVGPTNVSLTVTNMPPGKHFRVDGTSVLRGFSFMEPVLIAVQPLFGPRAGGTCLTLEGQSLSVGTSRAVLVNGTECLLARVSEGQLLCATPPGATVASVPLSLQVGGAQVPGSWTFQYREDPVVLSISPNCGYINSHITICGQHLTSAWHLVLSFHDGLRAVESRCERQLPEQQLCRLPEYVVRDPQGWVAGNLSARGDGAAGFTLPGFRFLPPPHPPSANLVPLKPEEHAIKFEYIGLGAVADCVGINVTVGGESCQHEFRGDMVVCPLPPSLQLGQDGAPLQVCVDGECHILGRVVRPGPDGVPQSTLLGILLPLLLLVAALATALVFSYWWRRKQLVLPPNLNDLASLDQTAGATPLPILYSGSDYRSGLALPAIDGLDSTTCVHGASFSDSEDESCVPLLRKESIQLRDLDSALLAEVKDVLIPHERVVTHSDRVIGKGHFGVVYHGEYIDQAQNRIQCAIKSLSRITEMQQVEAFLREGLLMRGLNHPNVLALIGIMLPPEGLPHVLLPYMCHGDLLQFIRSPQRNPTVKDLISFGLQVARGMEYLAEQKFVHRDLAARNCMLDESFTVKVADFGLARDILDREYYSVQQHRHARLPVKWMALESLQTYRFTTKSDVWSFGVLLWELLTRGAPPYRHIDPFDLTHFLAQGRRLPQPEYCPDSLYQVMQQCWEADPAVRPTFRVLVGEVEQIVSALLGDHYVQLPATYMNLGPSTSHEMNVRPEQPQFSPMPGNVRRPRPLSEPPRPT

Compound	IC50 [nM]
CCOc1ccn(-c2ccc(F)cc2)c(=O)c1C(=O)Nc1ccc(Oc2ccnc3cc(-c4ccc(CN5CCOCC5)cn4)sc23)c(Cl)c1 [Example 36, N-[3-chloro-4-({2-[5-(morpholinomethyl)pyridin-2-yl]thieno[3,2-b]pyridin-7-yl}oxy)phenyl]-4-ethoxy-1-(4-fluorophenyl)-2-oxo-1,2-dihydropyridine-3-carboxamide Hydrochloride]	2.28
CCOc1ccn(-c2ccc(OC)cc2)c(=O)c1C(=O)Nc1ccc(Oc2ccnc3cc(-c4ccc(CNCCOC)cn4)sc23)c(F)c1 [Example 15, 4-ethoxy-N-(3-fluoro-4-{[2-(5-{[(2-methoxyethyl)amino]methyl}pyridin-2-yl)thieno[3,2-b]pyridin-7-yl]oxy}phenyl)-1-(4-methoxyphenyl)-2-oxo-1,2-dihydropyridine-3-carboxamide Hydrochloride]	2.93
COCCNCc1ccc(-c2cc3nccc(Oc4ccc(NC(=O)c5ccnn(-c6ccccc6)c5=O)cc4F)c3s2)nc1 [Example 19, N-(3-fluoro-4-{[2-(5-{[(2-methoxyethyl)amino]methyl}pyridin-2-yl)thieno[3,2-b]pyridin-7-yl]oxy}phenyl)-3-oxo-2-phenyl-2,3-dihydropyridazine-4-carboxamide Hydrochloride]	3.66
CCOc1ccn(-c2cccc(OC)c2)c(=O)c1C(=O)Nc1ccc(Oc2ccnc3cc(-c4ccc(CNCCOC)cn4)sc23)c(F)c1 [Example 16, 4-ethoxy-N-(3-fluoro-4-{[2-(5-{[(2-methoxyethyl)amino]methyl}pyridin-2-yl)thieno[3,2-b]pyridin-7-yl]oxy}phenyl)-1-(3-methoxyphenyl)-2-oxo-1,2-dihydropyridine-3-carboxamide Hydrochloride]	3.43
CCOc1ccn(-c2ccc(F)cc2)c(=O)c1C(=O)Nc1ccc(Oc2ccnc3cc(-c4ccc(CN5CCOCC5)cn4)sc23)cc1Cl [Example 37, N-[2-chloro-4-({2-[5-(morpholinomethyl)pyridin-2-yl]thieno[3,2-b]pyridin-7-yl}oxy)phenyl]-4-ethoxy-1-(4-fluorophenyl)-2-oxo-1,2-dihydropyridine-3-carboxamide Hydrochloride]	10.3
COCCNCc1ccc(-c2cc3nccc(Oc4ccc(NC(=O)c5c(C)cnn(-c6ccc(F)cc6)c5=O)cc4F)c3s2)nc1 [Example 17, N-(3-fluoro-4-{[2-(5-{[(2-methoxyethyl)amino]methyl}pyridin-2-yl)thieno[3,2-b]pyridin-7-yl]oxy}phenyl)-2-(4-fluorophenyl)-5-methyl-3-oxo-2,3-dihydropyridazine-4-carboxamide Hydrochloride]	1.59
COCCNCc1ccc(-c2cc3nccc(Oc4ccc(NC(=O)c5cc(C)c(C)n(-c6ccc(F)cc6)c5=O)cc4F)c3s2)nc1 [Example 27, N-(3-fluoro-4-([2-(5-{[(2-methoxyethyl)amino)methyl]pyridin-2-yl}thieno[3,2-b]pyridin-7-yl)oxy]phenyl}-1-(4-fluorophenyl)-5,6-dimethyl-2-oxo-1,2-dihydropyridine-3-carboxamide Hydrochloride]	1.93
COCCNCc1ccc(-c2cc3nccc(Oc4ccc(NC(=O)c5cc(Br)cn(-c6ccc(F)cc6)c5=O)cc4F)c3s2)nc1 [Example 23, 5-bromo-N-(3-fluoro-4-{[2-(5-1 [(2-methoxyethyl)amino]methyl}pyridin-2-yl)thieno[3,2-b]pyridin-7-yl]oxy}phenyl)-1-(4-fluorophenyl)-2-oxo-1,2-dihydropyridine-3-carboxamide Hydrochloride]	8.05
COCCNCc1ccc(-c2cc3nccc(Oc4ccc(NC(=O)c5c(OC)ccn(-c6ccc(Cl)cc6)c5=O)cc4F)c3s2)nc1 [Example 13, 1-(4-chlorophenyl)-N-(3-fluoro-4-{[2-(5-{[(2-methoxyethyl)amino]methyl}pyridin-2-yl)thieno[3,2-b]pyridin-7-yl]oxy}phenyl)-4-methoxy-2-oxo-1,2-dihydropyridine-3-carboxamide Hydrochloride]	1.14
CCOc1ccn(-c2ccc(Cl)cc2)c(=O)c1C(=O)Nc1ccc(Oc2ccnc3cc(-c4ccc(CN5CCOCC5)cn4)sc23)c(F)c1 [Example 35, 1-(4-chlorophenyl)-4-ethoxy-N-[3-fluoro-4-({2-[5-(morpholinomethyl)pyridin-2-yl]thieno[3,2-b]pyridin-7-yl}oxy)phenyl]-2-oxo-1,2-dihydropyridine-3-carboxamide Hydrochloride]	2.55
CCOc1ccn(-c2ccc(C(F)(F)F)cc2)c(=O)c1C(=O)Nc1ccc(Oc2ccnc3cc(-c4ccc(CNCCOC)cn4)sc23)c(F)c1 [Example 12, 4-ethoxy-N-(3-fluoro-4-{[2-(5-{[(2-methoxyethyl)amino]methyl}pyridin-2-yl)thieno[3,2-b]pyridin-7-yl]oxy}phenyl)-2-oxo-1-(4-(trifluoromethyl)phenyl)-1,2-dihydropyridine-3-carboxamide Hydrochloride]	2.1
COCCNCc1ccc(-c2cc3nccc(Oc4ccc(NC(=O)c5cc(C)cn(-c6ccc(F)cc6)c5=O)cc4F)c3s2)nc1 [Example 29, N-(3-fluoro-4-{[-2-(5-{[(2-methoxyethyl)amino]methyl}pyridin-2-yl)thieno[3,2-b]pyridin-7-yl]oxy}phenyl)-1-(4-fluorophenyl)-5-methyl-2-oxo-1,2-dihydropyridine-3-carboxamide Hydrochloride]	1.21
CCOc1ccn(-c2ccc(F)cc2)c(=O)c1C(=O)Nc1ccc(Oc2ccnc3cc(-c4ccc(CN(CCOC)C(=O)OC(C)(C)C)cn4)sc23)c(F)c1 [Example 6, t-butyl {[6-(7-{4-[4-ethoxy-1-(4-fluorophenyl)-2-oxo-1,2-dihydropyridine-3-carboxamido]-2-fluorophenoxy}thieno[3,2-b]pyridin-2-yl)pyridin-3-yl]methyl}(2-methoxyethyl)carbamate]	21.9
COCCNCc1ccc(-c2cc3nccc(Oc4ccc(NC(=O)c5c(OC)ccn(-c6ccc(F)cc6)c5=O)c(Cl)c4)c3s2)nc1 [Example 10, N-(2-chlor-4-{[-2-(5-{[(2-methoxyethyl)amino]methyl}pyridin-2-yl)thieno[3,2-b]pyridin-7-yl]oxy}phenyl)-1-(4-fluorophenyl)-4-methoxy-2-oxo-1,2-dihydropyridine-3-carboxamide Hydrochloride]	5.66
CCOc1ccn(-c2ccc(F)cc2)c(=O)c1C(=O)Nc1ccc(Oc2ccnc3cc(-c4ccc(CNCCOC)cn4)sc23)cc1Cl [Example 26, N-(2-chloro-4-{[2-(5-{[(2-methoxyethyl)amino]methyl}pyridin-2-yl)thieno[3,2-b]pyridin-7-yl]oxy}phenyl)-4-ethoxy-1-(4-fluorophenyl)-2-oxo-1,2-dihydropyridine-3-carboxamide Hydrochloride]	3.7
COCCNCc1ccc(-c2cc3nccc(Oc4ccc(NC(=O)c5cccn(-c6ccccc6)c5=O)cc4F)c3s2)nc1 [Example 5, N-(3-fluoro-4-{[2-(5-{[(2-methoxyethyl)amino]methyl}pyridin-2-yl)thieno[3,2-b]pyridin-7-yl]oxy}phenyl)-2-oxo-1-phenyl-1,2-dihydropyridine-3-carboxamide Hydrochloride]	1.15

System: RON-activated KM12C colon cancer cell line
Assay: Cell killing efficacy, trypan blue exclusion assay, KM12C
Format: cell-based
Details: 1 μM, 48 hours
Procedure: (§1) Two colon cancer cell lines, RON-activated KM12C (80015, KCLB, MEM+10% FBS) and RON-mutated (Δ160) HT-29 (30038, KCLB, RPMI+10% FBS) were prepared in 6-well plates at 5×10^4 cells/well, respectively. After 24 hours, while freshly changing the medium, the sample compounds were added to the wells at a concentration of 1 μM or 5 μM and the plates were allowed to stand for 48 hours.
(§2) As the sample compounds, the compounds synthesized in the examples of the present invention and the compounds of the comparative examples were used.
(§3) After 48 hours, the cell suspensions were collected and centrifuged (1,500 rpm, 4 min.) to obtain the cells, and live cells and dead cells were quantitated (n=2) through a trypan blue (15250-061, Gibco) exclusion assay. The statistical analysis was performed using Excel™ T-test from Microsoft.
(§4) The cell death rates of the compounds of Examples and Comparative Examples were respectively measured and the results are shown in Table 4 as relative ratios to Comparative Example 1.

Compound	Cell death rate (Relative to Comp. Ex. 1)
CCOc1ccn(-c2ccccc2)c(=O)c1C(=O)Nc1ccc(Oc2ccnc3cc(-c4ccc(CN5CCN(C)CC5)cn4)sc23)c(F)c1.Cl [Example 34]	x 2.07

Same assay, conditions: 5 μM, 48 hours

Compound	Cell death rate (Relative to Comp. Ex. 1)
CCOc1ccn(-c2ccccc2)c(=O)c1C(=O)Nc1ccc(Oc2ccnc3cc(-c4ccc(CN5CCN(C)CC5)cn4)sc23)c(F)c1.Cl [Example 34]	x 1.11

System: RON-mutated (Δ160) HT-29 colon cancer cell line
Assay: Cell killing efficacy, trypan blue exclusion assay, HT-29
Format: cell-based
Details: HT29 cell, 1 μM, 48 hours
Procedure: as §1, §2, §3, §4

Compound	Cell death rate (Relative to Comp. Ex. 1)
CCOc1ccn(-c2ccccc2)c(=O)c1C(=O)Nc1ccc(Oc2ccnc3cc(-c4ccc(CN5CCN(C)CC5)cn4)sc23)c(F)c1.Cl [Example 34]	x 2.12

Same assay, conditions: HT29 cell, 5 μM, 48 hours

Compound	Cell death rate (Relative to Comp. Ex. 1)
CCOc1ccn(-c2ccccc2)c(=O)c1C(=O)Nc1ccc(Oc2ccnc3cc(-c4ccc(CN5CCN(C)CC5)cn4)sc23)c(F)c1.Cl [Example 34]	x 1.66

From US11447500B2, “Thienopyridine derivatives and pharmaceutical composition comprising same” (WELLMARKER BIO CO., LTD., priority 2018, dated 2022)
